Key:
[1] = Blood glucose after intranasal insulin with Solutol HS15 or its individual components (Example 8); format: in vivo, male Sprague Dawley rats; settings: insulin 4 IU/kg intranasal; PEG 600 10% w/v, PEG-HSA 10% w/v, HSA 0.37%, HSA-PEG-HSA 2%
Experimental: The PEG-HSA and HSA-PEG-HSA were prepared by refluxing polyethylene glycol 600 (PEG 600) and 12-Hydroxystearic acid (HSA) under argon at 120° C. using methane sulfonic acid. All chemicals were purchased from Sigma Aldrich.
Four components were tested in vivo. The following components were dissolved into 0.063M phosphate buffer at the concentrations below: • PEG 600—10% w/v solution • PEG-HSA—10% w/v Solution • HSA—0.37% solution • HSA-PEG-HSA—2% solution
The lower concentrations of HSA and HSA-PEG-HSA were used due to restricted solubility of these materials.
The components dissolved in phosphate buffer were then used to prepare 1 mg/mL insulin solutions and administered intranasally to male Sprague Dawley rats at a rate of 4 IU/kg. All formulations were administered with a Gilson pipette and the tip was inserted approximately 5 mm into the nostril. The animals were housed in limited access rooms where the temperature and humidity were maintained at 21° C.±2° C. and 55%±15% relative respectively; the rooms were lit with artificial light for 12 hours each day. Blood samples were collected from the tail vein of the rats at 0 min (Pre-dose) and 5, 15, 30, 60 and 120 minutes after administration into heparinized tubes, centrifuged and the plasma collected. Blood glucose was measured immediately at each sampling point using a one touch Ultra 2 glucose meter (LifeScan, UK).

[2] = Blood glucose after intranasal insulin in Solutol HS15 solutions (Example 1); format: in vivo, Sprague Dawley rats; settings: control insulin solutions, without Solutol HS15
Experimental: The formulations were then administered intranasally to Sprague Dawley rats at 4 IU/kg and blood samples taken at frequent intervals up to 2 hours after administration. Blood glucose was measured using a standard glucose meter and insulin determined in the plasma by an enzyme linked immunosorbant assay (ELISA).
A group of rats was also administered with insulin dissolved in PBS via subcutaneous injection as comparison to the intranasal doses.

Row | Compound | drop in blood glucose levels [1] | decrease in plasma glucose levels [2] [%]
1 | CCCCCCC(O)CCCCCCCCCCC(=O)O (centres unmarked) [HSA, 12-Hydroxystearic acid] | did not | 
2 | insulin: Insulin (available from Sigma-Aldrich) |  | 15
